Experimental data: patent publication US9499550B2 (BRISTOL-MYERS SQUIBB COMPANY, priority 2012, dated 2016)
pEC50: −log10 of the molar value.

How the values were obtained:
[1] = test system: HCV genotype 1b (Con1) replicon in HUH-7 cells; assay: HCV replicon luciferase reporter assay, genotype 1b; assay type: cell-based; conditions: Hepatitis C virus, Huh-7, 72 h, HCV genotype 1b replicon luciferase assay, 3 days incubation, range class, read-out: LE_1b (EC50, range)
Method in brief: (§1)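 Replicon inhibition for both genotypes was measured as Renilla luciferase signal (EnduRen, 7.5 μM final, 2 h) after 3-day, 37° C exposure of replicon-bearing HUH-7 cells in 4% FCS DMEM, 0.5% DMSO. The 1b construct carries S1179I; the 1a H77 construct carries P1496L and S2204I. Twenty-point, 3-fold dilutions were fitted four-parametrically for EC50, and CC50 was taken from multiplexed Cell Titer-Blue.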

[2] = test system: HCV genotype 1a (H77 strain) replicon in HUH-7 cells; assay: HCV replicon luciferase reporter assay, genotype 1a; assay type: cell-based; conditions: Hepatitis C virus, Huh-7, 72 h, HCV genotype 1a replicon luciferase assay, 3 days incubation, range class, read-out: LE_1a (EC50, range)
Method in brief: as §1

Compound | pEC50 [1] | pEC50 [2]
COc1ccc2c(O[C@@H]3C[C@H]4C(=O)N[C@]5(C(=O)NS(=O)(=O)C6(CF)CC6)C[C@H]5/C=C\CC[C@@H](C)C[C@@H](C)[C@H](NC(=O)OC5COC5)C(=O)N4C3)nc(OC)cc2c1 [Compound 1129, oxetan-3-yl ((2R,6S,7R,9R,13aS,14aR,16aS,Z)-2-((3,6-dimethoxyisoquinolin-1-yl)oxy)-14a-(((1-(fluoromethyl)cyclopropyl)sulfonyl)carbamoyl)-7,9-dimethyl-5,16-dioxo-1,2,3,5,6,7,8,9,10,11,13a,14,14a,15,16,16a-hexadecahydrocyclopropa[e]pyrrolo[1,2-a][1,4]diazacyclopentadecin-6-yl)carbamate] | > 8.26 | > 8.26
COc1ccc2c(O[C@@H]3C[C@H]4C(=O)N[C@]5(C(=O)NS(=O)(=O)C6(C)CC6)C[C@H]5/C=C\CC[C@H](C)C[C@@H](C)[C@H](NC(=O)OC(C)(C)C)C(=O)N4C3)nc(OC)cc2c1 [Compound 1130, tert-butyl ((2R,6S,7R,9S,13aS,14aR,16aS,Z)-2-((3,6-dimethoxyisoquinolin-1-yl)oxy)-7,9-dimethyl-14a-(((1-methylcyclopropyl)sulfonyl)carbamoyl)-5,16-dioxo-1,2,3,5,6,7,8,9,10,11,13a,14,14a,15,16,16a-hexadecahydrocyclopropa[e]pyrrolo[1,2-a][1,4]diazacyclopentadecin-6-yl)carbamate] | > 8.26 | > 8.26
COc1ccc2c(O[C@@H]3C[C@H]4C(=O)N[C@]5(C(=O)NS(=O)(=O)C6(C)CC6)C[C@H]5/C=C\CC[C@@H](C)C[C@@H](C)[C@H](NC(=O)OC(C)(C)C)C(=O)N4C3)nc(OC)cc2c1 [Compound 1131, tert-butyl ((2R,6S,7R,9R,13aS,14aR,16aS,Z)-2-((3,6-dimethoxyisoquinolin-1-yl)oxy)-7,9-dimethyl-14a-(((1-methylcyclopropyl)sulfonyl)carbamoyl)-5,16-dioxo-1,2,3,5,6,7,8,9,10,11,13a,14,14a,15,16,16a-hexadecahydrocyclopropa[e]pyrrolo[1,2-a][1,4]diazacyclopentadecin-6-yl)carbamate] | > 8.26 | > 8.26
COc1ccc2c(O[C@@H]3C[C@H]4C(=O)N[C@]5(C(=O)NS(=O)(=O)C6(C)CC6)C[C@H]5/C=C\CC[C@H](C)C[C@@H](C)[C@H](NC(=O)OC(C)(C)C(F)(F)F)C(=O)N4C3)nc(OC)cc2c1 [Compound 1132, 1,1,1-trifluoro-2-methylpropan-2-yl((2R,6S,7R,9S,13aS,14aR,16aS,Z)-2-((3,6-dimethoxyisoquinolin-1-yl)oxy)-7,9-dimethyl-14a-(((1-methylcyclopropyl)sulfonyl)carbamoyl)-5,16-dioxo-1,2,3,5,6,7,8,9,10,11,13a,14,14a,15,16,16a-hexadecahydrocyclopropa[e]pyrrolo[1,2-a][1,4]diazacyclopentadecin-6-yl)carbamate] | > 8.26 | > 8.26
COc1ccc2c(O[C@@H]3C[C@H]4C(=O)N[C@]5(C(=O)NS(=O)(=O)C6(C)CC6)C[C@H]5/C=C\CC[C@@H](C)C[C@@H](C)[C@H](NC(=O)OC(C)(C)C(F)(F)F)C(=O)N4C3)nc(OC)cc2c1 [Compound 1133, 1,1,1-trifluoro-2-methylpropan-2-yl((2R,6S,7R,9R,13aS,14aR,16aS,Z)-2-((3,6-dimethoxyisoquinolin-1-yl)oxy)-7,9-dimethyl-14a-(((1-methylcyclopropyl)sulfonyl)carbamoyl)-5,16-dioxo-1,2,3,5,6,7,8,9,10,11,13a,14,14a,15,16,16a-hexadecahydrocyclopropa[e]pyrrolo[1,2-a][1,4]diazacyclopentadecin-6-yl)carbamate] | > 8.26 | > 8.26
CCN(C)c1cc2cc(OC)ccc2c(O[C@@H]2C[C@H]3C(=O)N[C@]4(C(=O)NS(=O)(=O)C5(CF)CC5)C[C@H]4/C=C\CC[C@H](C)C[C@@H](C)[C@H](NC(=O)OC(C)(C)C)C(=O)N3C2)n1 [Compound 1134, tert-butyl ((2R,6S,7R,9S,13aS,14aR,16aS,Z)-2-((3-(ethyl(methyl)amino)-6-methoxyisoquinolin-1-yl)oxy)-14a-(((1-(fluoromethyl)cyclopropyl)sulfonyl)carbamoyl)-7,9-dimethyl-5,16-dioxo-1,2,3,5,6,7,8,9,10,11,13a,14,14a,15,16,16a-hexadecahydrocyclopropa[e]pyrrolo[1,2-a][1,4]diazacyclopentadecin-6-yl)carbamate] | < 7.06 | < 7.06
CCN(C)c1cc2cc(OC)ccc2c(O[C@@H]2C[C@H]3C(=O)N[C@]4(C(=O)NS(=O)(=O)C5(CF)CC5)C[C@H]4/C=C\CC[C@@H](C)C[C@@H](C)[C@H](NC(=O)OC(C)(C)C)C(=O)N3C2)n1 [Compound 1135, tert-butyl ((2R,6S,7R,9R,13aS,14aR,16aS,Z)-2-((3-(ethyl(methyl)amino)-6-methoxyisoquinolin-1-yl)oxy)-14a-(((1-(fluoromethyl)cyclopropyl)sulfonyl)carbamoyl)-7,9-dimethyl-5,16-dioxo-1,2,3,5,6,7,8,9,10,11,13a,14,14a,15,16,16a-hexadecahydrocyclopropa[e]pyrrolo[1,2-a][1,4]diazacyclopentadecin-6-yl)carbamate] | > 8.26 | 6.99 to 8.32
CCN(C)c1cc2cc(OC)ccc2c(O[C@@H]2C[C@H]3C(=O)N[C@]4(C(=O)NS(=O)(=O)C5(CF)CC5)C[C@H]4/C=C\CC[C@H](C)C[C@@H](C)[C@H](NC(=O)OC(C)(C)C(F)(F)F)C(=O)N3C2)n1 [Compound 1136, 1,1,1-trifluoro-2-methylpropan-2-yl((2R,6S,7R,9S,13aS,14aR,16aS,Z)-2-((3-(ethyl(methyl)amino)-6-methoxyisoquinolin-1-yl)oxy)-14a-(((1-(fluoromethyl)cyclopropyl)sulfonyl)carbamoyl)-7,9-dimethyl-5,16-dioxo-1,2,3,5,6,7,8,9,10,11,13a,14,14a,15,16,16a-hexadecahydrocyclopropa[e]pyrrolo[1,2-a][1,4]diazacyclopentadecin-6-yl)carbamate] | < 7.06 | < 7.06
CCN(C)c1cc2cc(OC)ccc2c(O[C@@H]2C[C@H]3C(=O)N[C@]4(C(=O)NS(=O)(=O)C5(CF)CC5)C[C@H]4/C=C\CC[C@@H](C)C[C@@H](C)[C@H](NC(=O)OC(C)(C)C(F)(F)F)C(=O)N3C2)n1 [Compound 1137, 1,1,1-trifluoro-2-methylpropan-2-yl((2R,6S,7R,9R,13aS,14aR,16aS,Z)-2-((3-(ethyl(methyl)amino)-6-methoxyisoquinolin-1-yl)oxy)-14a-(((1-(fluoromethyl)cyclopropyl)sulfonyl)carbamoyl)-7,9-dimethyl-5,16-dioxo-1,2,3,5,6,7,8,9,10,11,13a,14,14a,15,16,16a-hexadecahydrocyclopropa[e]pyrrolo[1,2-a][1,4]diazacyclopentadecin-6-yl)carbamate] | > 8.26 | 6.99 to 8.32
CCN(C)c1cc2cc(OC)ccc2c(O[C@@H]2C[C@H]3C(=O)N[C@]4(C(=O)NS(=O)(=O)C5(CF)CC5)C[C@H]4/C=C\CC[C@H](C)C[C@@H](C)[C@H](NC(=O)OC(C)(C)C(C)(F)F)C(=O)N3C2)n1 [Compound 1138, 3,3-difluoro-2-methylbutan-2-yl((2R,6S,7R,9S,13aS,14aR,16aS,Z)-2-((3-(ethyl(methyl)amino)-6-methoxyisoquinolin-1-yl)oxy)-14a-(((1-(fluoromethyl)cyclopropyl)sulfonyl)carbamoyl)-7,9-dimethyl-5,16-dioxo-1,2,3,5,6,7,8,9,10,11,13a,14,14a,15,16,16a-hexadecahydrocyclopropa[e]pyrrolo[1,2-a][1,4]diazacyclopentadecin-6-yl)carbamate] | < 7.06 | < 7.06
CCN(C)c1cc2cc(OC)ccc2c(O[C@@H]2C[C@H]3C(=O)N[C@]4(C(=O)NS(=O)(=O)C5(CF)CC5)C[C@H]4/C=C\CC[C@@H](C)C[C@@H](C)[C@H](NC(=O)OC(C)(C)C(C)(F)F)C(=O)N3C2)n1 [Compound 1139, 3,3-difluoro-2-methylbutan-2-yl((2R,6S,7R,9R,13aS,14aR,16aS,Z)-2-((3-(ethyl(methyl)amino)-6-methoxyisoquinolin-1-yl)oxy)-14a-(((1-(fluoromethyl)cyclopropyl)sulfonyl)carbamoyl)-7,9-dimethyl-5,16-dioxo-1,2,3,5,6,7,8,9,10,11,13a,14,14a,15,16,16a-hexadecahydrocyclopropa[e]pyrrolo[1,2-a][1,4]diazacyclopentadecin-6-yl)carbamate] | 6.99 to 8.32 | 6.99 to 8.32
COc1ccc2c(O[C@@H]3C[C@H]4C(=O)N[C@]5(C(=O)NS(=O)(=O)C6(C)CC6)C[C@H]5/C=C\CC[C@H](C)C[C@@H](C)[C@H](NC(=O)OC5(C(F)(F)F)COC5)C(=O)N4C3)nc(OC)cc2c1 [Compound 1140, 3-(trifluoromethyl)oxetan-3-yl ((2R,6S,7R,9S,13aS,14aR,16aS,Z)-2-((3,6-dimethoxyisoquinolin-1-yl)oxy)-7,9-dimethyl-14a-(((1-methylcyclopropyl)sulfonyl)carbamoyl)-5,16-dioxo-1,2,3,5,6,7,8,9,10,11,13a,14,14a,15,16,16a-hexadecahydrocyclopropa[e]pyrrolo[1,2-a][1,4]diazacyclopentadecin-6-yl)carbamate] | > 8.26 | > 8.26
COc1ccc2c(O[C@@H]3C[C@H]4C(=O)N[C@]5(C(=O)NS(=O)(=O)C6(C)CC6)C[C@H]5/C=C\CC[C@@H](C)C[C@@H](C)[C@H](NC(=O)OC5(C(F)(F)F)COC5)C(=O)N4C3)nc(OC)cc2c1 [Compound 1141, 3-(trifluoromethyl)oxetan-3-yl ((2R,6S,7R,9R,13aS,14aR,16aS,Z)-2-((3,6-dimethoxyisoquinolin-1-yl)oxy)-7,9-dimethyl-14a-(((1-methylcyclopropyl)sulfonyl)carbamoyl)-5,16-dioxo-1,2,3,5,6,7,8,9,10,11,13a,14,14a,15,16,16a-hexadecahydrocyclopropa[e]pyrrolo[1,2-a][1,4]diazacyclopentadecin-6-yl)carbamate] | > 8.26 | > 8.26
